Results reported in patent US8242302B2, “Inhibitor of ischemic disorders” (Fukuoka University, priority 2007, dated 2012).

Columns and labels:
[1] = system: middle cerebral artery (MCA) occlusion model mice; assay: Evaluation of therapeutic effect on ischemia-reperfusion brain damage (MCA occlusion model, single i.v. dose after reperfusion); assay type: in vivo, male ddY mice; details: infarct volume at 24 h
From the text: Thus, a model evaluated for therapeutic effect of ischemia-reperfusion brain damage was constructed by administering a drug after reperfusion in the MCA occlusion model, and the effect of the test compound as a therapeutic drug was investigated: the therapeutic effect evaluation model reflects the direct damage by reactive oxygen species (ROIs) and the process to the secondary oxidative stress and inflammatory response due to ROIs. (2) Evaluation Method for Therapeutic Effect of Ischemia-Reperfusion Brain Damage With the use of male ddY mice (25-30 g, 6-7 weeks old), middle cerebral artery (MCA) occlusion model mice were prepared according to the method of Koizumi et al. (“Strokes”, Vol. 8, pp 1-8, 1986). The MCA occlusion was 4 hours, and a single dose of drug solution was intravenously administered 6 or 10 hours after the start of ischemia (i.e., 2 hours or […]). Brain slice samples were prepared 24 hours after the start of infarction and stained with triphenyltetrazolium chloride (TTC staining), and then the cerebral infarct volume was measured from the brain slice samples by image processing.

[2] = system: middle cerebral artery (MCA) occlusion model mice; assay: Evaluation of preventive effect on ischemia-reperfusion brain damage (MCA occlusion model, drug i.v. immediately before and 3 h after infarction); assay type: in vivo, male ddY mice; details: 4 h MCA occlusion, infarct volume 24 h after start of occlusion (TTC)
Experimental: In addition, a drug was administered immediately before infarction and during infarction in the MCA occlusion model, and the effect as a preventive drug was also investigated.
(1) Evaluation Method for Preventive Effect of Ischemia-Reperfusion Brain Damage
With the use of male ddY mice (25-30 g, 6-7 weeks old), middle cerebral artery (MCA) occlusion model mice were prepared according to the method of Koizumi et al. (“Strokes”, Vol. 8, pp 1-8, 1986). The MCA occlusion was carried out for 4 hours, a test drug solution was intravenously administered twice, namely, immediately before infarction and 3 hours after infarction. Brain slice samples were prepared 24 hours after the start of infarction and stained with triphenyltetrazolium chloride (TTC staining), and then the cerebral infarct volume was measured from the brain slice samples by image processing.

[3] = system: mouse middle cerebral artery (MCA) occlusion model; details: i.v. twice, immediately before infarction and during infarction; prophylactic; cited from earlier work
[4] = single i.v. dose 20 μmol/kg 6 hours after start of ischemia
[5] = i.v. 20 mmol/kg×2 doses (so in the source)
[6] = single i.v. dose 2 μmol/kg 6 hours after start of ischemia

Compound	suppression of the infarct volume [1, 4]	suppression of the infarct volume ([2]; i.v. 2 μmol/kg×2 doses)	suppression of the infarct volume ([2]; i.v. 20 μmol/kg×2 doses)	suppression of the infarct volume [2, 5]	suppression of the infarct volume ([1]; single i.v. dose 20 μmol/kg 10 hours after start of ischemia)	infarct inhibitory effect [3]	suppression of the infarct volume [1, 6]
2R-γ-tocopheryl phosphate disodium salt [γ-TPS]	a significant suppression of the infarct volume was observed						
CC(C)=CCC/C(C)=C/CC/C(C)=C/CO [FO, (2E,6E) farnesol, reference compound]		significant suppression of the infarct volume was not observed	significantly suppressed				
CC(C)=CCCC(C)=CCCC(C)=CCOC(=O)CN(C)C.Cl [FODMG, farnesol N,N-dimethylglycinate hydrochloride]	significantly suppressed	significantly suppressed		significantly suppressed	significantly suppressed		
CC1=NN(c2ccccc2)C(=O)C1 [edaravone, reference compound]		significantly suppressed	a significant effect was not observed				
CC(C)=CCC/C(C)=C/CC/C(C)=C/CC[C@]1(C)CCc2c(C)c(O)c(C)c(C)c2O1 [α-T3, 2R-α-tocotrienol]						excellent infarct inhibitory effect	
CC(C)=CCC/C(C)=C/CC/C(C)=C/CC[C@]1(C)CCc2c(C)c(OC(=O)CN(C)C)c(C)c(C)c2O1.Cl [α-T3DMG, 2R-α-tocotrienyl N,N-dimethylglycinate hydrochloride]	significantly suppressed	a significant suppression of the infarct volume was observed	a significant suppression of the infarct volume was observed				significantly suppressed
Cc1c(C)c2c(c(C)c1O)CC[C@@](C)(CCC[C@H](C)CCC[C@H](C)CCCC(C)C)O2 [α-Toc, 2R-α-tocopherol, reference compound]		a significant suppression of the infarct volume was not observed	significantly suppressed				
Cc1c(OC(=O)CN(C)C)cc2c(c1C)O[C@](C)(CCC[C@H](C)CCC[C@H](C)CCCC(C)C)CC2.Cl [γ-TDMG, 2R-γ-tocopheryl N,N-dimethylglycinate hydrochloride]	significantly suppressed	a significant suppression of the infarct volume was observed		a significant suppression of the infarct volume was observed			significantly suppressed
Cc1c(O)cc2c(c1C)O[C@](C)(CCC[C@H](C)CCC[C@H](C)CCCC(C)C)CC2 [γ-Toc, 2R-γ-tocopherol, reference compound]	significantly suppressed	significantly suppressed	significantly suppressed			excellent infarct inhibitory effect	significantly suppressed
